Experimental data from EP2719375A1, “Cannabinoids for the treatment of cancers dependent on hedgehog mechanisms” (Max-Planck-Gesellschaft zur Förderung der Wissenschaften …, priority 2012, dated 2014).
“Also recorded” adds a separate entry of the source. Where two headings read alike, the source gives them in different places.

Columns and labels:
[1] = target: T1, Smo (Drosophila melanogaster, UniProt P91682); assay: Drosophila wing disc assay, Smo staining; details: for ectopic Smo accumulation / stabilization: LppRNAi wing discs, DOPC liposomes, 2 hours; for effects on Hh signaling in Drosophila: wing discs, judged from Smo and Ci155 accumulation
T1 construct: from tissue; host or cells: explanted wing imaginal discs from wild type and LppRNAi Drosophila larvae
T1 sequence (P91682 32-1036): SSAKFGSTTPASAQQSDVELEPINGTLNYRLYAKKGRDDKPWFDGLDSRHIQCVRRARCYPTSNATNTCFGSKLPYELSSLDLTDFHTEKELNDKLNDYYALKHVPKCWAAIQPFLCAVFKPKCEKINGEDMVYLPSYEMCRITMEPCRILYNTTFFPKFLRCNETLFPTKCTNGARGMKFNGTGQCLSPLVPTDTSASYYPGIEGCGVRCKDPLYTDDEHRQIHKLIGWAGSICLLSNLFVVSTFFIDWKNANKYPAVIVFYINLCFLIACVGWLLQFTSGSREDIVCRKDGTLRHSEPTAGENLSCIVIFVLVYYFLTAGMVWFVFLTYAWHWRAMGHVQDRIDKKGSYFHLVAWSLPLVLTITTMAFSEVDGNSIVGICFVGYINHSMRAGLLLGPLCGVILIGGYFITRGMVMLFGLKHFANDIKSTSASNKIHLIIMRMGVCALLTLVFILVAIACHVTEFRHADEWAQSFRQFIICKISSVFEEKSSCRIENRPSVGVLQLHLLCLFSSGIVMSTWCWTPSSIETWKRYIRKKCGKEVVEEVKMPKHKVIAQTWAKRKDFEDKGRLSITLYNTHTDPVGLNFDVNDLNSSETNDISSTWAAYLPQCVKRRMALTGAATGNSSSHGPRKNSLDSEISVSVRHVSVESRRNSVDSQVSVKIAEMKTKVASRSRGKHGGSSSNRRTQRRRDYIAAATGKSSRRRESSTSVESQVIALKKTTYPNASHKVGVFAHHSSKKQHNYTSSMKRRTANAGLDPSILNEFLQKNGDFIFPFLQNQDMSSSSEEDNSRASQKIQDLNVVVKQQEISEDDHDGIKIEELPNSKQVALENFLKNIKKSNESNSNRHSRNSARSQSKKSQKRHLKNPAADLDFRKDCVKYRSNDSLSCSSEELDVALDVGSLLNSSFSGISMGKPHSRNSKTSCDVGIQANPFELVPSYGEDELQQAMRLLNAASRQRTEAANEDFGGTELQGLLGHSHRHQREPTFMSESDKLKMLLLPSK
Method: (§1) Imaginal discs were fixed and stained as previously described (Marois et al., 2006). Antibodies were diluted as follows: anti-Ci 2A1 1:10 (Wang and Holmgren, Development, 126(22): p. 5097-106 (1999)), anti-Smo 1:50 (Lum et al., Mol Cell, 12(5): p. 1261-74 (2003)).
(§2) All quantified immunostaining was performed on discs that were dissected, fixed, stained and imaged in parallel using the same microscope settings. To quantify Ci155 and Smo staining intensities, three apical sections 0.7 µm apart were projected using maximal intensity in ImageJ. For each image, two rectangles of 100 pixels parallel to the A/P axis by 351 pixels parallel to the D/V axis were selected and centered at the A/P boundary in ventral and dorsal compartments. Average pixel intensity was determined as a function of distance from A/P boundary using PlotProfile and plotted using Microsoft Excel. All A/P boundaries were determined according to anti-Ci155 coimmunostaining. To estimate the significance of changes in staining intensities in discs of different genotypes, we measured Smo or Ci staining intensity at the same distance from the A/P boundary in each disc and calculated p values using Excel.
(§3) The assay was performed as previously described (Khaliullina et al., Development, 136(24): p. 4111-21 (2009)). Endocannabinoids were applied in DOPC vesicles at concentrations of up to 200µM.

[2] = tested on: Shh signaling in ShhLIGHT2 cells; assay: ShhLIGHT2 signaling assay (Gli-responsive Firefly:Renilla luciferase ratio); type: cell-based, mammalian; details: for inhibits Shh signaling: at 30µM; for effect on signaling in ShhLIGHT2 cells (pure compounds, column fractions): cells stimulated with non-lipoprotein-associated Shh
Method: HeLa cells were passaged in DMEM with 10% fetal bovine serum (FBS, Gibco), 50 U/ml penicillin and 50µg/ml streptomycin (Gibco). To prepare non-lipoprotein-associated Shh, HeLa cells were transfected with plasmids encoding human Shh using polyethylenimine (Polysciences) in OptiMem (Invitrogen), then switched Shh-transfected HeLa cells to serum-free media (DMEM +1% Insulin-Transferrin-Selenium mixture (ITS-X, Gibco) 4 h post transfection. After 48 h, conditioned media were centrifuged at 1000 g for 20 min and concentrated using Amicon Ultra -10K (Millipore) for use in the signaling assay. Identically treated media from nontransfected HeLa cells were used as controls.
Shh-LIGHT2 cells (Taipale et al., 2000) were maintained in DMEM + 10% FBS, 150 µg/ml zeocin (Invitrogen) and 400 µg/ml G418 (Invitrogen). 24 h prior to assay, cells were plated at […] in 96-well plates. Cells were then switched to a serum-free medium consisting of DMEM + 1% ITS-X, and supplemented with combinations of Shh and different lipids. Lipids were added in DMSO. Luciferase activity was assayed in cell lysates after 24 h, as instructed by the manufacturer (Dual Glo Luciferase Assay, Promega).

[3] = tested on: Ci155; assay: Drosophila wing disc assay, Ci155 staining; details: LppRNAi wing discs, DOPC liposomes, 2 hours
Method: as §1, §2, §3

[4] = Shh Light2, ShhLIGHT2 cells stimulated with Shh, serum-free medium, lipid added in DMSO, luciferase after 24 h, read-out: EC50 (inhibits Shh signaling)
[5] = Shh Light2, 24 h, read-out: EC50 (inhibits Shh signaling)

SMILES: CCCCC/C=C\C/C=C\C/C=C\C/C=C\CCCCOC(CO)CO [2-glyceryl ether (20:4), 2-arachidonyl glyceryl ether]
- ectopic Smo accumulation / stabilization [1]: no activity
- effects on Hh signaling in Drosophila [1]: complete inactivity
- EC50 [2, 4]: 15000 nM
- inhibits Shh signaling [2]: almost completely
- ectopic Ci155 accumulation [3]: no activity

SMILES: CC(C)CCC[C@@H](C)[C@H]1CC[C@H]2C3=CC=C4C[C@@H](O)CC[C@]4(C)[C@H]3CC[C@]12C [7-dehydrocholesterol, reference compound]
- ectopic Smo accumulation / stabilization [1]: neither reversed Smo accumulation
- effect on signaling in ShhLIGHT2 cells (pure compounds, column fractions) [2]: inhibited signaling

SMILES: CCCCCCCCCCCCCCCC(=O)NCCc1ccc(O)c(O)c1 [N-acyl dopamine (16:0)]
- ectopic Smo accumulation / stabilization [1]: no activity
- ectopic Ci155 accumulation [3]: no activity

SMILES: CCCCCCCCCCCCCCCCCC(=O)NCCc1ccc(O)c(O)c1 [N-acyl dopamine (18:0)]
- EC50 [2, 5]: 5000 nM
- inhibition at 30 µM ([2]; Shh Light2, read-out: inhibits Shh signaling by): 80%

SMILES: CCCCCCCCCCCCCCCC(=O)NC(CO)C(=O)O (centres unmarked) [N-acyl serine (16:0)]
- ectopic Smo accumulation / stabilization [1]: no activity
- EC50 ([2]; Shh Light2, ShhLIGHT2 cells stimulated with Shh, serum-free medium, lipid added in DMSO, read-out: EC50 (increases Shh signaling)): 500 nM
- increases Shh signaling by ([2]; Shh-induced Firefly:Renilla increase normalized to 100): 40%
- effect on signaling in ShhLIGHT2 cells (pure compounds, column fractions) [2]: stimulated signaling
- ectopic Ci155 accumulation [3]: no activity

SMILES: CCCCCCCCCCCCCCCC(=O)NCCO [N-acylethanolamide (16:0)]
- ectopic Smo accumulation / stabilization [1]: reverses ectopic Smo stabilization; also recorded: completely reverses ectopic accumulation of Smo
- effects on Hh signaling in Drosophila [1]: strong negative effects
- ectopic Ci155 accumulation [3]: partially reverses Ci155 accumulation; also recorded: significantly reverses ectopic accumulation of Ci155

SMILES: CCCCCCCCCCCCCCCCCC(=O)NCCO [N-acylethanolamide (18:0)]
- ectopic Smo accumulation / stabilization [1]: not decreased
- ectopic Ci155 accumulation [3]: not decreased

SMILES: CCCCCCCC/C=C\CCCCCCCC(=O)NCCO [N-acylethanolamide (18:1)]
- ectopic Smo accumulation / stabilization [1]: not decreased
- ectopic Ci155 accumulation [3]: not decreased

SMILES: CCCCC/C=C\C/C=C\CCCCCCCC(=O)NCCO [N-acylethanolamide (18:2), linoleylethanolamide]
- EC50 decreased by addition of FAAH inhibitor [2]: > 10 fold
- EC50 decreased by pre-incubation with lipoproteins [2]: > 10 fold
- EC50 [2, 5]: ~15000 nM
- EC50 ([2]; Shh Light2, in presence of PF-3845, a selective FAAH inhibitor, read-out: EC50): 500 nM
- inhibits Shh signaling [2]: almost completely
- EC50 decreased by pre-incubation with lipoproteins ([2]; pre-incubated with lipoproteins versus added in DMSO without prior incubation): more than 10 fold

SMILES: CCCCC/C=C\C/C=C\C/C=C\C/C=C\CCCC(=O)NCCO [N-acylethanolamide (20:4), arachidonyl ethanolamide]
- ectopic Smo accumulation / stabilization [1]: not decreased
- ectopic Ci155 accumulation [3]: not decreased

SMILES: C=C(C)[C@@H]1CCC(C)=C[C@H]1c1c(O)cc(CCCCC)cc1O [cannabidiol]
- EC50 [2, 4]: < 1000 nM

SMILES: CCCCCc1cc(O)c2c(c1)OC(C)(C)c1ccc(C)cc1-2 [cannabinol]
- EC50 [2, 4]: < 1000 nM

SMILES: C=C1CC[C@H](O)C/C1=C/C=C1\CCC[C@]2(C)[C@@H]([C@H](C)CCCC(C)C)CC[C@@H]12 [vitamin D3, reference compound]
- ectopic Smo accumulation / stabilization [1]: neither reversed Smo accumulation
- effect on signaling in ShhLIGHT2 cells (pure compounds, column fractions) [2]: inhibited signaling
